The source of these data is the METLIN SMRT retention time set (Domingo-Almenara et al. 2019).

SMILES strings stand for the structures.

The nature of this data set: gradient 5% acetonitrile 3 min, to 50% in 2 min, to 85% in 15 min, held 3 min, 100 µL/min. Conditions: column: Zorbax Extend-C18 2.1 x 50 mm; eluents: water / acetonitrile, 0.1% formic acid. The procedure, abridged:
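Pure standards were run in mixtures of ~100 molecules by HPLC coupled to a quadrupole time-of-flight mass spectrometer. The column was a Zorbax Extend-C18 (2.1 × 50 mm, 1.8 μm) at 100 μL/min, with water and acetonitrile each containing 0.1% formic acid, in positive and negative ionization mode. Dead and dwell volumes were 40 μL and 900 μL. Retention time was taken from computationally picked adduct peaks, each manually inspected, with data collected over 3 months.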
In turn, `CCC(C)N1CCN(C(=O)CCc2ccc3c(c2)CN(C(=O)C2CC2)CCO3)CC1` (centres undefined) returned an RP-LC retention time of 598 s.
Next, `O=C(Cn1cccc1-c1nc(-c2ccc(Cl)cc2)cs1)N1CCN(c2ccccn2)CC1`: 772 s; `CC(C)N1CCN(C(=O)c2n[nH]c3c2CCCC3)CC1`: 558 s; `Cc1cc(F)ccc1NS(=O)(=O)c1cc2n(c1)CCCN(C)C2=O`: 687 s.
`O=C(C1=CN(c2ccc3c(c2)OCCO3)c2cc(Cl)ccc2S1(=O)=O)N1CCCC1` had an RP-LC retention time of 838 s.
In turn, `COC(=O)c1c(-c2ccc(Cl)cc2)noc1NC(C)C` returned an RP-LC retention time of 1090 s.
Regarding `CC(=O)N1CCc2cc(N3CC(C(=O)Nc4ccc(F)cc4C)CC3=O)ccc21` (centres undefined), the RP-LC retention time was determined as 690 s.
Compound `O=C(c1ccccn1)N1CC(n2cc(COc3ccncc3)nn2)C1` returned an RP-LC retention time of 566 s.
Next, `CCc1nc(-c2csc(S(=O)(=O)N3CCCC(C(=O)Nc4cccnc4)C3)c2)no1` (centres undefined): 678 s.
Turning to `COc1ccc(NC(=O)N2CCC3(CC2)NC(=O)c2cccc(Cl)c2N3)c(C)c1`, the RP-LC retention time came out at 834 s.
`Cc1nn(-c2ccc(F)cc2)c(C)c1S(=O)(=O)N1CCN(c2ccccn2)CC1` displayed an RP-LC retention time of 683 s.
The same measure for `O=C(NC1CC1)c1nc(C(=O)N2CCN(c3ccccc3Cl)CC2)cs1`: 881 s; for `O=C(NCCc1ccccc1)N1CCCC(Cn2cnc3cccnc32)C1` (centres undefined): 635 s.
Next, `COC(=O)c1ccc(NC(=O)Cn2nc3nc(N4CCCCC4C)ccn3c2=O)cc1` (centres undefined): 778 s; `CCOc1ccccc1C(=O)N1CCC2(CC1)N=C(c1cccc(Br)c1)NO2`: 951 s; `CCOc1ccccc1NC(=O)N1CCN(Cc2nc3cc(Cl)ccc3o2)CC1`: 867 s.
Consider `O=C(CSc1ccc(-c2cccnc2)nn1)NCC1CCCO1` (centres undefined), for which the RP-LC retention time came to 548 s.
The compound `O=C(NCCc1c[nH]c2ccccc12)c1cn(-c2ccc(F)cc2)nn1` showed an RP-LC retention time of 898 s.
Regarding `COc1cc([C@@H]2c3cc4c(cc3[C@H](O)[C@@H](CO)[C@@H]2C(=O)N2CCCC2)OCO4)cc(OC)c1OC`, the RP-LC retention time amounted to 641 s.
Turning to `O=C(Nc1ccccc1)N1CCc2[nH]cnc2C1c1ccccn1` (centres undefined), the RP-LC retention time amounted to 598 s.
Consider `Cc1ccc(CNS(=O)(=O)c2cc(-c3cc(C(F)(F)F)on3)sc2C)cc1`, for which the RP-LC retention time was 1230 s.
Compound `COc1cccc(C2Cn3nnc(-c4nc(-c5cccc(C(F)(F)F)c5)no4)c3CO2)c1` (centres undefined) displayed an RP-LC retention time of 1270 s.
`CN(Cc1ccccc1)C(=O)Cn1cccc1-c1nnc(-c2ccccc2)o1` yielded an RP-LC retention time of 940 s.
The same measure for `COc1ccccc1NC(=O)Cn1ncc2c(c1=O)N(CC1CC1)C(=O)CS2`: 794 s.
The compound `CC(C)=CCC/C(C)=C\C(N)=O` registered an RP-LC retention time of 816 s.
With `COc1cccc(CNC(=O)C2(C)CCCN(C(=O)NCCc3ccccc3)C2)c1` (centres undefined), the RP-LC retention time turned out to be 855 s.
Consider `Cc1cc(C)cc(NC(=O)Cn2c(C)nc3c(sc4nc(-c5ccccc5)ccc43)c2=O)c1`, for which the RP-LC retention time was 1050 s.
Compound `O=C(Nc1ccc(OCc2nnc(-c3ccccc3)o2)cc1)C1CCCC1` yielded an RP-LC retention time of 885 s.
Next, `CNC(=O)c1cc(-c2ccc(F)cc2)n[nH]1`: 659 s; `O=C(NC1CCCCCCC1)c1nnc(-c2ccc(S(=O)(=O)N3CCCC3)cc2)o1`: 1070 s; `Cc1ccc(-c2cc(C(=O)N3CCN(c4ccc(N5CCOCC5)nn4)CC3)[nH]n2)cc1C`: 657 s.
The same measure for `COCc1cc(=O)n(CC(=O)Nc2ccc(F)cc2C)c(N)n1`: 593 s.
The same measure for `O=C(CCc1nc2sc3c(c2c(=O)[nH]1)CCCCC3)N1CCN(c2ccccn2)CC1`: 603 s; for `Cc1[nH]nc(-c2cc(S(=O)(=O)NCCc3ccc(S(N)(=O)=O)cc3)c(C)s2)c1C`: 699 s.
As to `CCCNC(=O)C1CCN(c2ccc(SCC(=O)Nc3ccccc3Cl)nn2)CC1`, the RP-LC retention time worked out at 655 s.
`Cc1nc2ccn(Cc3ccco3)c(=O)c2cc1C(=O)NCCC1=CCCCC1` showed an RP-LC retention time of 828 s.
Next, `CCn1cnc(S(=O)(=O)N2CCC(C(=O)Nc3cc(OC)cc(OC)c3)CC2)c1`: 704 s.
For the compound `Cc1ccccc1NC(=O)C(C)n1nc(C)c2nn(-c3ccccc3)c(-n3cccc3)c2c1=O` (centres undefined), the RP-LC retention time came out at 1090 s.
The same measure for `CC(C)N1CC(c2nc(-c3ccccc3)no2)C2(CCCC2)C1` (centres undefined): 737 s; for `Cc1cccc(-c2nc(N3CCCCCC3)c3ccccc3n2)c1`: 848 s; for `CCn1cnc(S(=O)(=O)N2CCCC(C(=O)NC3CCCCCCC3)C2)c1` (centres undefined): 788 s.
In turn, `CCN1C(=O)C2CC3(CCN(C(=O)c4ccoc4)CC3)CN2C1=O` (centres undefined) gave an RP-LC retention time of 628 s.
For `Cc1nc(-c2nc(-c3cccs3)cs2)cn1CC(=O)NCc1ccccc1`, the RP-LC retention time turned out to be 760 s.
Next, `CSc1cccc2sc(Nc3nc(C)c(C(C)=O)s3)nc12`: 842 s.
Turning to `CC(=O)Nc1ccc(S(=O)(=O)N2CCC(CN3CCCCCC3)CC2)cc1`, the RP-LC retention time amounted to 588 s.
`COCCn1cc(CCNC(=O)Nc2cc(Cl)cc(Cl)c2)c2cccnc21` yielded an RP-LC retention time of 893 s.
As to `COc1cccc(C(=O)N2C[C@@H]3C[C@H](NC(=O)c4cccs4)[C@H]2C3)c1OC`, the RP-LC retention time was 679 s.
The same measure for `CC1=NS(=O)(=O)N(Cc2ccccc2)C=C1C(=O)OCc1ccc(F)cc1`: 1080 s; for `O=C(NCCc1ccccc1)N1CCN(c2nc3cccnc3n(Cc3ccccc3)c2=O)CC1`: 1080 s; for `O=C(NCCCN1CCCC1)c1cc2n(n1)CCCN(Cc1ccc(F)cc1)C2=O`: 619 s.
Next, `Fc1ccc(C2CCNCC2COc2ccc3c(c2)OCO3)cc1` (centres undefined): 778 s.
Next, `COc1ccc(NC(=O)Nc2c(-c3ccncc3)[nH]c3ccc(F)cc23)c(OC)c1`: 683 s.
`O=C(c1ccc(Br)o1)N1C[C@@H](CO)[C@H](c2ccncc2)C1` had an RP-LC retention time of 515 s.
Compound `O=C(Cn1c(=O)oc2cc(Cl)ccc21)N1CCN(c2ccccn2)CC1` had an RP-LC retention time of 630 s.
Consider `COc1cc(CN2CC(F)(F)C[C@H]2c2nnc(C3CC3)o2)ccc1F`, for which the RP-LC retention time turned out to be 931 s.
Next, `NS(=O)(=O)c1ccc(CCNC(=O)c2cccc(-n3cnnn3)c2)cc1`: 617 s; `CC1Oc2ccccc2C=C1/C=C1\Oc2cc(OC(=O)N(C)C)ccc2C1=O` (centres undefined): 795 s; `Cc1noc2nc(C)n(CC(=O)Nc3cccc4c3CCCC4)c(=O)c12`: 871 s.
The same measure for `COc1ccc(Cn2nc3c(S(=O)(=O)N4CCCCCC4)cccn3c2=O)cc1F`: 941 s.
